In paper PMC12468313, “Use of Amplified Lewy Body Dementia Fibrils and Autoradiography to Characterize Binding of Radioligand Tg-1-90B to Alpha-Synuclein Fibrils in Postmortem Brain Tissue” (Cells, 2025):

Experiments:
[1] = biological target: T1, IVTris fibrils (recombinant Asyn PFF) (Homo sapiens, UniProt P37840); assay: [3H]Tg-1-90B saturation binding assay with IVTris fibrils; settings: 250 nM fibrils
T1 construct: made in house
Method: (§1) IVTris fibrils were assembled in vitro by spontaneous nucleation in 20 mM Tris-HCl, pH 8.0, 100 mM NaCl buffer in a total volume of 1500 µL at 2 mg/mL monomer concentration. The incubation was carried out at 37 °C with continuous shaking at 1000 rpm in a Thermomixer (Eppendorf, Framingham, MA, USA) for 72 h. Amplified LBD fibrils were prepared as described in Dhavale et al. and case LBD1 amplified fibrils were used in this study. PD, disease-control and AD insoluble fraction (IF) tissue homogenate was prepared by sequential homogenization of dissected tissue gray matter in a series of detergents followed by centrifugation to obtain insoluble fraction. […]
(§2) A fixed concentration of binding substrates IVTris fibrils (250 nM), amplified LBD fibrils (50 nM), Aβ fibrils (150 nM), tau fibrils (150 nM), PD, AD or disease control homogenate (10 µg/mL) were incubated for 2 h at 37 °C with increasing concentrations of [^3H]Tg-1-90B in a reaction volume of 150 µL in a 96-well plate. […] Filters containing the bound ligand were mixed with 150 µL of Optiphase Supermix scintillation cocktail (PerkinElmer, Waltham, MA, USA) and counted following overnight incubation. […] The dissociation constant (Kd) and the maximal number of binding sites (Bmax) values were determined by fitting the data to the equation Y = Bmax × X/(X + Kd) by non-linear regression using Graphpad Prism software (version 7.0).

[2] = biological target: T2, amplified LBD fibrils (PDB 8FPT) alpha-synuclein (Homo sapiens, UniProt P37840); assay: [3H]Tg-1-90B saturation binding assay with amplified LBD fibrils; settings: 50 nM fibrils
T2 construct: made in house
Method: as §1, §2

## COc1ccc(/C=C/c2cc(-c3nccs3)on2)cc1 [Tg-1-90B]
[1]; 2 h 37 °C, one site saturable specific binding
  Kd: 40.1 ± 1.9 nM
[1]; per nmol Asyn
  average Bmax, IVTris fibrils: 22.3 ± 0.1 pmol/nmol
[2]; 2 h 37 °C
  Kd: 17.5 nM
[2]; per nmol Asyn
  average Bmax, amplified LBD fibrils: 20.6 ± 2.5 pmol/nmol
